According to US8192962B2, “Processes for detecting toxic substances” (Daikin Industries, Ltd., priority 2001, dated 2012):

Tested on: Unknown protein yeast genes
Test: DNA chip mRNA expression in yeast, unknown protein yeast genes (Table 1)
Assay type: cell-based, Saccharomyces cerevisiae S288C
Description: Yeast (Saccharomyces cerevisiae S288C (α SUC2mal mel gap2 CUP1)) were incubated at 25° C. on YPD medium (yeast extract 1%, polypepton 2%, glucose 2%). One of toxic chemical substances was added to the cells at logarithmic growth phase, and the cells were further incubated for two hours. Cells were cultured without any chemical substance in the same condition, and were used as control. Concentrations of the chemical substances were defined to inhibit the growth of the yeast but not lead to death.
After completion of the incubation, the culture was centrifuged to collect the cells. To the cells, sodium acetate buffer (50 mM sodium acetate, 10 mM EDTA, 1% SDS) was added, and the mixture was shaken at 65° C. for five minutes, followed by returning to room temperature, and obtaining the supernatant, of which the procedures were repeated two times. To the supernatant, ½ amount of a solution of phenol/chloroform was added, and the mixture was centrifuged to give a supernatant, which was added with an equal amount of chloroform, and the mixture was centrifuged to give a supernatant. To the supernatant, an equal amount of isopropanol containing 0.3 M sodium acetate was added, and the mixture was allowed to stand at room temperature for 30 minutes, after which the mixture was centrifuged to give a sediment of the whole RNAs. Seventy % ethanol was added to the sediment, and the mixture was again centrifuged to give a sediment, which was then dried and dissolved in water. mRNA was isolated from the whole RNAs as followings. In view of the fact that a poly A chain is attached to the 3′ terminus of mRNA, a polynucleotide having a poly T structure which was immobilized on the surface of latex beads was used to trap the mRNA, and then the mRNA was washed and eluted with spine column (Oligotex-dT30<Super>mRNA Purification Kit, Takara). Reverse transcription of the mRNA was conducted with a reverse transcriptase (Super Script II Reverse Transcriptase; catalogue No. 18064-014, GibcoBRL) using fluorescence-labeled nucleotides to give cDNAs that were introduced with Cy3-dUTP or Cy5-dUTP during the reverse transcription.
The labeled cDNAs were dissolved in TE buffer (10mM Tris-HCl/1 mM EDTA, pH8.0), and the solution was dropped on the DNA chip containing the whole genes of yeast (DNA Chip Research Inc. Japan) so that the cDNAs were hybridized on the DNA chip at 65° C. for over 12 hours. The fluoresces intensity of the DNA chip was read with a scanner, and the ratio relative to the fluorescence intensity resulting from the absence of chemical substance was estimated as the following, which is shown in Tables 1 to 9: […]

## [Cl][Hg][Cl] [(3), HgCl2]
Yeast gene YKL195W, incubated two hours with chemical substance
  The level of expressed mRNA in the presence of chemical substance/The level of expressed mRNA in the absence of chemical substance: 0.4
Yeast gene YKR091W, incubated two hours with chemical substance
  The level of expressed mRNA in the presence of chemical substance/The level of expressed mRNA in the absence of chemical substance: 0.9
Yeast gene YLR054C, incubated two hours with chemical substance
  The level of expressed mRNA in the presence of chemical substance/The level of expressed mRNA in the absence of chemical substance: 0.4
Yeast gene YLR149C, incubated two hours with chemical substance
  The level of expressed mRNA in the presence of chemical substance/The level of expressed mRNA in the absence of chemical substance: 3.4
Yeast gene YLR152C, incubated two hours with chemical substance
  The level of expressed mRNA in the presence of chemical substance/The level of expressed mRNA in the absence of chemical substance: 1.1
Yeast gene YLR194C, incubated two hours with chemical substance
  The level of expressed mRNA in the presence of chemical substance/The level of expressed mRNA in the absence of chemical substance: 1.3
Yeast gene YLR324W, incubated two hours with chemical substance
  The level of expressed mRNA in the presence of chemical substance/The level of expressed mRNA in the absence of chemical substance: 0.9
Yeast gene YLR350W, incubated two hours with chemical substance
  The level of expressed mRNA in the presence of chemical substance/The level of expressed mRNA in the absence of chemical substance: 3.2
Yeast gene YLR387C, incubated two hours with chemical substance
  The level of expressed mRNA in the presence of chemical substance/The level of expressed mRNA in the absence of chemical substance: 0.8
Yeast gene YLR460C
  The level of expressed mRNA in the presence of chemical substance/The level of expressed mRNA in the absence of chemical substance: 2.0
Yeast gene YML117W, incubated two hours with chemical substance
  The level of expressed mRNA in the presence of chemical substance/The level of expressed mRNA in the absence of chemical substance: 0.9
Yeast gene YMR009W, incubated two hours with chemical substance
  The level of expressed mRNA in the presence of chemical substance/The level of expressed mRNA in the absence of chemical substance: 0.5
Yeast gene YMR067C, incubated two hours with chemical substance
  The level of expressed mRNA in the presence of chemical substance/The level of expressed mRNA in the absence of chemical substance: 1.1
Yeast gene YMR090W
  The level of expressed mRNA in the presence of chemical substance/The level of expressed mRNA in the absence of chemical substance: 2.3
Yeast gene YMR095C, incubated two hours with chemical substance
  The level of expressed mRNA in the presence of chemical substance/The level of expressed mRNA in the absence of chemical substance: 1.6
Yeast gene YMR097C, incubated two hours with chemical substance
  The level of expressed mRNA in the presence of chemical substance/The level of expressed mRNA in the absence of chemical substance: 0.7
Yeast gene YMR102C, incubated two hours with chemical substance
  The level of expressed mRNA in the presence of chemical substance/The level of expressed mRNA in the absence of chemical substance: 1.1
Yeast gene YMR107W, incubated two hours with chemical substance
  The level of expressed mRNA in the presence of chemical substance/The level of expressed mRNA in the absence of chemical substance: 1.7
Yeast gene YMR180C, incubated two hours with chemical substance
  The level of expressed mRNA in the presence of chemical substance/The level of expressed mRNA in the absence of chemical substance: 1.0
Yeast gene YMR184W, incubated two hours with chemical substance
  The level of expressed mRNA in the presence of chemical substance/The level of expressed mRNA in the absence of chemical substance: 1.0
Yeast gene YMR191W, incubated two hours with chemical substance
  The level of expressed mRNA in the presence of chemical substance/The level of expressed mRNA in the absence of chemical substance: 1.9
Yeast gene YMR295C, incubated two hours with chemical substance
  The level of expressed mRNA in the presence of chemical substance/The level of expressed mRNA in the absence of chemical substance: 1.2
Yeast gene YMR316W, incubated two hours with chemical substance
  The level of expressed mRNA in the presence of chemical substance/The level of expressed mRNA in the absence of chemical substance: 1.1
Yeast gene YNL044W, incubated two hours with chemical substance
  The level of expressed mRNA in the presence of chemical substance/The level of expressed mRNA in the absence of chemical substance: 2.3
Yeast gene YNL074C, incubated two hours with chemical substance
  The level of expressed mRNA in the presence of chemical substance/The level of expressed mRNA in the absence of chemical substance: 1.8
Yeast gene YNL092W, incubated two hours with chemical substance
  The level of expressed mRNA in the presence of chemical substance/The level of expressed mRNA in the absence of chemical substance: 2.4
Yeast gene YNL115C, incubated two hours with chemical substance
  The level of expressed mRNA in the presence of chemical substance/The level of expressed mRNA in the absence of chemical substance: 1.6
Yeast gene YNL156C, incubated two hours with chemical substance
  The level of expressed mRNA in the presence of chemical substance/The level of expressed mRNA in the absence of chemical substance: 0.9
Yeast gene YNL234W, incubated two hours with chemical substance
  The level of expressed mRNA in the presence of chemical substance/The level of expressed mRNA in the absence of chemical substance: 0.6
Yeast gene YNL281W, incubated two hours with chemical substance
  The level of expressed mRNA in the presence of chemical substance/The level of expressed mRNA in the absence of chemical substance: 2.0
Yeast gene YNL305C, incubated two hours with chemical substance
  The level of expressed mRNA in the presence of chemical substance/The level of expressed mRNA in the absence of chemical substance: 2.7
Yeast gene YNR068C, incubated two hours with chemical substance
  The level of expressed mRNA in the presence of chemical substance/The level of expressed mRNA in the absence of chemical substance: 2.3
Yeast gene YOL032W, incubated two hours with chemical substance
  The level of expressed mRNA in the presence of chemical substance/The level of expressed mRNA in the absence of chemical substance: 2.0
Yeast gene YOL036W, incubated two hours with chemical substance
  The level of expressed mRNA in the presence of chemical substance/The level of expressed mRNA in the absence of chemical substance: 1.3
Yeast gene YOL047C, incubated two hours with chemical substance
  The level of expressed mRNA in the presence of chemical substance/The level of expressed mRNA in the absence of chemical substance: 1.1
Yeast gene YOL071W, incubated two hours with chemical substance
  The level of expressed mRNA in the presence of chemical substance/The level of expressed mRNA in the absence of chemical substance: 1.7
Yeast gene YOL082W, incubated two hours with chemical substance
  The level of expressed mRNA in the presence of chemical substance/The level of expressed mRNA in the absence of chemical substance: 1.6
Yeast gene YOL083W, incubated two hours with chemical substance
  The level of expressed mRNA in the presence of chemical substance/The level of expressed mRNA in the absence of chemical substance: 1.2
Yeast gene YOL117W, incubated two hours with chemical substance
  The level of expressed mRNA in the presence of chemical substance/The level of expressed mRNA in the absence of chemical substance: 0.5
Yeast gene YOL131W, incubated two hours with chemical substance
  The level of expressed mRNA in the presence of chemical substance/The level of expressed mRNA in the absence of chemical substance: 0.6
Yeast gene YOL150C
  The level of expressed mRNA in the presence of chemical substance/The level of expressed mRNA in the absence of chemical substance: 9.9
Yeast gene YOL162W, incubated two hours with chemical substance
  The level of expressed mRNA in the presence of chemical substance/The level of expressed mRNA in the absence of chemical substance: 1.7
Yeast gene YOR019W, incubated two hours with chemical substance
  The level of expressed mRNA in the presence of chemical substance/The level of expressed mRNA in the absence of chemical substance: 0.8
Yeast gene YOR197W, incubated two hours with chemical substance
  The level of expressed mRNA in the presence of chemical substance/The level of expressed mRNA in the absence of chemical substance: 1.1
Yeast gene YPL087W, incubated two hours with chemical substance
  The level of expressed mRNA in the presence of chemical substance/The level of expressed mRNA in the absence of chemical substance: 3.0
Yeast gene YPL196W, incubated two hours with chemical substance
  The level of expressed mRNA in the presence of chemical substance/The level of expressed mRNA in the absence of chemical substance: 1.3
Yeast gene YPL206C, incubated two hours with chemical substance
  The level of expressed mRNA in the presence of chemical substance/The level of expressed mRNA in the absence of chemical substance: 1.4
Yeast gene YPL222W, incubated two hours with chemical substance
  The level of expressed mRNA in the presence of chemical substance/The level of expressed mRNA in the absence of chemical substance: 0.8
Yeast gene YPR023C, incubated two hours with chemical substance
  The level of expressed mRNA in the presence of chemical substance/The level of expressed mRNA in the absence of chemical substance: 1.2
Yeast gene YPR151C, incubated two hours with chemical substance
  The level of expressed mRNA in the presence of chemical substance/The level of expressed mRNA in the absence of chemical substance: 1.5
